pEC50: −log10 of the molar value. Where two headings read alike, the source gives them in different places.
What was measured:
[1] = biological target: T1, Full-length (FL)-PRMT5-MEP50 enzyme complex (Homo sapiens, UniProt O14744); assay: PRMT5-MEP50 Enzyme Methylation Assay (Version B); assay type: biochemical
T1 construct: Full-length (FL)-PRMT5-MEP50 enzyme complex (recombinant proteins from baculovirus-transfected Sf21 cells: FL-PRMT5; MW=73837 kDa and FL-MEP50; MW=38614); made in house; host or cells: baculovirus-transfected Sf21 cells
T1 sequence (O14744 whole entry): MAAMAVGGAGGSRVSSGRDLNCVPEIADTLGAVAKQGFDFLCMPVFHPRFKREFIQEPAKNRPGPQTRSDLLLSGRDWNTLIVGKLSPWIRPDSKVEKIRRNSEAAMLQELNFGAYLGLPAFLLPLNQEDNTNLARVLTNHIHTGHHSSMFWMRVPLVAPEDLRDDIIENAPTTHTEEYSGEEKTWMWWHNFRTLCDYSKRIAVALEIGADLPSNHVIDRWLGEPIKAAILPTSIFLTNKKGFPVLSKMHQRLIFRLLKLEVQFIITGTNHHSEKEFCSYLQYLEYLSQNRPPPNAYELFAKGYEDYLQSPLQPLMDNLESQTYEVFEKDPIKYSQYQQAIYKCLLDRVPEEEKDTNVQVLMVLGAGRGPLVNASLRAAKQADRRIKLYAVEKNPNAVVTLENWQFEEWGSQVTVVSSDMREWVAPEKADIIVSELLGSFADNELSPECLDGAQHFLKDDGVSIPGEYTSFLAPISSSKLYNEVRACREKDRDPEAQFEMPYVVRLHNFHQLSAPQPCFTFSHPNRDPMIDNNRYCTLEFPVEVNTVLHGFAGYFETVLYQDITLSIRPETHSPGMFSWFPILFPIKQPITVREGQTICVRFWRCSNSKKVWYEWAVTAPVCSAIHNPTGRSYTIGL
T1 sequence (Q9BQA1 whole entry partner): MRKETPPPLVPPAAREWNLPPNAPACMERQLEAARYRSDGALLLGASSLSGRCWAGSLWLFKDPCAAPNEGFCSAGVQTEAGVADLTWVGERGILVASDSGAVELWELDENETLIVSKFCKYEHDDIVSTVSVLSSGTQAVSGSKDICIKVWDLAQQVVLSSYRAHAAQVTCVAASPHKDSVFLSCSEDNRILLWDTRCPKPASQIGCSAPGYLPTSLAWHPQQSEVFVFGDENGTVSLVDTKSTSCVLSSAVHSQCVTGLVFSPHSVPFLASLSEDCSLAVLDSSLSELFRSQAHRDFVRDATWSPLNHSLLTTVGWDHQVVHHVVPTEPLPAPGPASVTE
Method: PRMT5-MEP50 Enzyme Methylation Assay (Version B)
PRMT5/MEP50 biochemical assay is a direct measurement of the methylation activity of the enzyme complex on a short peptide substrate derived from the N-terminus of H4 histone. Methylation experiment was performed with recombinant protein. The assessment of inhibitory effect (IC50) of small molecules was measured by the effectiveness of the compounds to inhibit this reaction.
In this assay, the potency (IC50) of each compound was determined from a twenty-point (1:2 serial dilution; top compound concentration of 100000 nM) titration curve using the following outlined procedure. To each well of a white ProxiPlus 384 well-plate, 100 nL of compound (1% DMSO in final assay volume of 10 μL) was dispensed, followed by the addition of 8 μL of 1× assay buffer (50 mM Bicine pH 8.0, 1 mM DTT, 0.004% Tween20, 0.01% BSA) containing 0.5 nM of Full-length (FL)-PRMT5-MEP50 enzyme complex (recombinant proteins from baculovirus-transfected Sf21 cells: FL-PRMT5; MW=[…] and FL-MEP50; MW=38614). Plates were sealed and placed in a 37° C. humidified chamber for 30 minutes pre-incubation with compounds. Subsequently, each reaction was initiated by the addition of 2 μL 1× assay buffer containing 75 nM biotinylated H4R3 (Me1) peptide, and 15 μM S-(5′-Adenosyl)-L-Methionine Chloride (SAM). The final reaction in each well of 10 μL consists of 0.5 nM PRMT5-MEP50, 75 nM biotinylated-peptide, and 15 μM SAM. Methylation reactions were allowed to proceed for 150 minutes in a sealed plate at 37° C. Reactions were immediately quenched by the addition of 1 μL of 10% formic acid. Plates were then frozen and shipped to SAMDI™ Tech Inc. to determine the percent conversion from […]. EC50 values were determined by non-linear regression according to models for either sigmoidal (4 parameters) or biphasic (7 parameters) dose-response curves.

[2] = tested on: symmetric dimethylation of arginine (SDMA) of PRMT5 substrates in MCF-7 cells; assay: PRMT5 Cell Target Engagement (TE) Assay; assay type: cell-based; settings: 3 days treatment, SDMA high content imaging
Method in brief: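 Readout is single-cell nuclear symmetric-dimethylarginine immunofluorescence (Alexa488), normalized to DMSO-treated cells. Compounds were applied to MCF-7 cells for 3 days at 37 °C, top concentration 10000 nM in 1:3 steps over ten points; curves fitted with 4-parameter robust fit.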

[3] = second value of 7 parameter biphasic fit, read-out: Enzyme Methylation Assay Version B (EC50 2)
[4] = single EC50 = 4 parameter single site sigmoidal fit, EC50 1 = first value of 7 parameter biphasic fit, read-out: Enzyme Methylation Assay Version B (EC50 or EC50 1)

Structure (SMILES) | pEC50 [1, 3] | pEC50 [1, 4] | pEC50 ([2]; Homo sapiens, MCF7, 72 h) | pEC50 [2]
CCOc1cc(C(=O)N2C3CCC2COC3)ccc1C(=O)N1CCC2(CC1)Cc1ccc(Cl)cc1CN2 [Example 52, [4-(7-chloro-1,4-dihydro-1H,2H-spiro[isoquinoline-3,4′-piperidine]-1′-carbonyl)-3-ethoxyphenyl](3-oxa-8-azabicyclo[3.2.l]octan-8-yl)methanone] | 5.65 | 8.17 | 7.06 | –
CCOc1nc(C(F)(F)F)ccc1C(=O)N1CCC2(CC1)Cc1ccccc1CN2 [Example 115, (1,4-dihydro-1′H,2H-spiro[isoquinoline-3,4′-piperidin]-1′-yl)[2-ethoxy-6-(trifluoromethyl)pyridin-3-yl]methanone] | 4.26 | 7.06 | ≤ 5.00 | –
CCOc1cc(C(=O)N2C3CCC2COC3)ccc1C(=O)N1CCC2(CC1)Cc1ccccc1CN2 [Example 172, (4-(3-oxa-8-azabicyclo[3.2.1]octane-8-carbonyl)-2-ethoxyphenyl)(1,4-dihydro-2H-spiro[isoquinoline-3,4′-piperidin]-1′-yl)methanone] | 5.71 | 8.27 | 7.05 | –
CCOc1cc(C(=O)N2C3CCC2COC3)ccc1C(=O)N1CCC2(Cc3ccccc3CN2)C(O)C1 (single isomer, unassigned) [Example 87, A diastereomer of {3-ethoxy-4-[(3′-hydroxy-1,4-dihydro-1′H,2H-spiro[isoquinoline-3,4′-piperidin]-1′-yl)carbonyl]phenyl}(3-oxa-8-azabicyclo[3.2.1]oct-8-yl)methanone] | 6.17 | 8.45 | – | 8.04
CCOc1cc(C(=O)N2C3CCC2COC3)ccc1C(=O)N1CCC2(Cc3ccccc3CN2)C(O)C1 (single isomer, unassigned) [Example 89, A diastereomer of {3-ethoxy-4-[(3′-hydroxy-1,4-dihydro-1′H,2H-spiro[isoquinoline-3,4′-piperidin]-1′-yl)carbonyl]phenyl}(3-oxa-8-azabicyclo[3.2.1]oct-8-yl)methanone] | 5.70 | 8.32 | – | 8.16
CC(=O)N1CCC(Nc2cc(C(=O)N3CCC4(Cc5ccccc5CN4)C(O)C3)ncn2)CC1 (single isomer, unassigned) [Example 92, A diastereomer of 1-[4-({6-[(3′-hydroxy-1,4-dihydro-1′H,2H-spiro[isoquinoline-3,4′-piperidin]-1′-yl)carbonyl]-4-pyrimidinyl}amino)-1-piperidinyl]ethanone] | – | 6.02 | – | ≤ 5.00
O=C(c1ccc(C(=O)N2C3CCC2COC3)cc1)N1CCC2(Cc3ccccc3CN2)C(O)C1 (single isomer, unassigned) [Example 149, (3′-hydroxy-1,4-dihydro-1′H,2H-spiro[isoquinoline-3,4′-piperidin]-1′ -yl)[4-(3-oxa-8-azabicyclo[3.2.1]oct-8-ylcarbonyl)phenyl]methanone] | ≤ 4.00 | 6.53 | – | 5.01
[2H]C1([2H])NC2(CCN(C(=O)c3ccc(C(=O)N4C5CCC4COC5)cc3OCC)CC2)Cc2ccccc21 [Example 175, (4-(3-oxa-8-azabicyclo[3.2.1]octane-8-carbonyl)-2-ethoxyphenyl)(1,4-dihydro-2H-spiro[isoquinoline-3,4′-piperidin]-1′-yl-1,1-d2)methanone] | 5.60 | 8.20 | 6.81 | –
CC(=O)N1CCC(Nc2cc(C(=O)N3CCC4(Cc5ccccc5CN4)C(O)C3)ncn2)CC1 (single isomer, unassigned) [Example 93, A diastereomer of 1-[4-({6-[(3′-hydroxy-1,4-dihydro-1′H,2H-spiro[isoquinoline-3,4′-piperidin]-1′-yl)carbonyl]-4-pyrimidinyl}amino)-1-piperidinyl]ethanone] | 5.97 | 8.51 | – | 7.56

— patent publication US12441730B2, “PRMT5 inhibitors” (Merck Sharp & Dohme LLC, priority 2019, dated 2025)
